# Data reported in US11590092B2, “Skin probiotic” (The Regents of the University of California, priority 2014, dated 2023).
# “Also recorded” adds a separate entry of the source.
# Tests used:
# E. coli = assay: Radial diffusion assay against E. coli; assay type: cell-based, Escherichia coli
# Description: (§1) A radial diffusion assay (RDA) was performed as follows. Briefly, microorganisms in the mid-log phase were centrifuged at 12,000×g for 10 min, washed with PBS, and dispersed (10^5 cfu/ml) in agar consisting of 1% (w/v) agarose (Sigma) and 3% (w/v) culture medium in PBS at 42° C. Then, the agar was poured into Petri dishes and solidified. Wells (diameter 3 mm and volume 30 μl) were created by poking a pipette tip into the semi-solidified agar. Propionic acid was serially diluted in PBS to concentrations ranging from 5 to 2,000 mM, and 30 μl aliquots were added to the wells; PBS served as the control. After 3 h of incubation, a 10 ml overlay gel composed of 3% culture medium and 1% agarose was poured onto the plates, where after the plates were incubated overnight and examined for zones of growth inhibition.
# [1] = test system: S. aureus strains ATCC29247 and CMCC(B)26003; assay: Inhibition of other S. aureus strains; assay type: cell-based, Staphylococcus aureus
# USA300 = assay: In vivo skin wound infection with USA300; parameters: species or system ICR mice; settings: for USA300 colonization / growth in the skin lesions: vs controls
# Description: (§2) ICR mice (2-3-month-old female) were anesthetized by isoflurane. In each experiment, there were five mice per group. A wound 5 mm in length was made on the dorsal skin after shaving with electrical clippers. Once the skin wound was created, 5 μl of propionic acid (100 mM), PBS (pH 7.1) or PBS (pH 3.5) was applied topically to the wounded areas. The wounds were left uncovered throughout the experimental period. For bacterial infection, USA300 (2×10^6 CFU in PBS) was applied topically to the wounded areas 10 min after application of propionic acid or PBS. For the measurement of the extent of wound closure, a transparent parafilm was put on the top of the wounded skin. The wound area was marked on the parafilm by drawing an area which covered the whole skin wound. The lesion size was measured daily for 8 days was calculated using the ImageJ software [National Institutes of Health (NIH), Bethesda, Md., USA] and expressed as mm^2. Student's t-test was used to determine the significance of the differences between groups of the PBS (pH 7.1)- and propionic acid-treated mice as well as the PBS (pH 7.1)- and PBS (pH 3.5)-treated mice. Data represent the mean±SD from three independent experiments. All experiments using mice were conducted in a Biosafety Level 2 (BSL-2) facility and with accordance to institutional guidelines for animal experiments.
# The USA300-infected skins treated with propionic acid and its controls were cross-sectioned, stained with hematoxylin and eosin (H&E) (Sigma, St. Louis, Mo.), and viewed on a Bx51 research microscope (Olympus, Melville, N.Y., USA). To determine the bacterial number in infected skin, the whole area of infected skin was excised 72 h after bacterial application. The excised skin was homogenized in 200 μl of sterile PBS with a hand tissue grinder. Bacterial CFUs in the skin were enumerated by plating serial dilutions (1:10^1-1:10^6) of the homogenate on a TSB agar plate. The plate was incubated for 24 h at 37° C. to count colonies.
# ICR mice (2-3 month-old females; Harlan Labs, Placentia, Calif., USA) were anesthetized by isoflurane. A 5 mm wounds were made on the dorsal skin following shaving with electrical clippers. Following skin wounding, 5 μl of filter sterilized media obtained by incubating P. acnes (10^5 CFU/ml in 10 ml) with/without glycerol for 17 days or 5 μl of media with glycerol (control) were applied and to the wounded areas. To determine if propionic acid can prevent or mitigate the MRSA infection, 5 μl of 100 mM propionic acid was applied to the wounded areas. Application of PBS/pH (pH 3.5, corresponding to pH for 100 mM propionic acid) or PBS (pH 7.1) to the wounded areas served as controls. The wounds were left uncovered throughout the experimental period. USA300 (2×10^6 CFU in 5 μl PBS) was then applied to the wounds 10 min after application of various media, propionic acid or PBS controls. To measure the extent of wound closure, a transparent parafilm was placed over the wounded skin and the area was marked by outlining the area of the wound. The lesion size (mm^2) was measured daily for 8 days then calculated with ImageJ software (NIH, Bethesda, Md., USA). Five mice per group per experiments were used. A Student's t-test was used to determine the significance of the differences between groups. Data represent the mean±SD from three independent experiments. All experiments using mice were conducted in a biosafety level 2 (BSL-2) facility and in accordance with institutional guidelines for animal experiments. To determine the bacterial counts in infected skin, the infected skin was excised 72 h following bacterial application. The excised skin was weighted and homogenized in 200 μl of sterile PBS with a tissue grinder. Bacterial CFUs in the skin were enumerated by plating serial dilutions (1:10^1-1:10^6) of the homogenate on a TSB agar plate. The plate was incubated for 24 h at 37° C. to count colonies. […]
# C. albicans [2] = assay: Radial diffusion assay against C. albicans; assay type: cell-based, Candida albicans
# Description: as §1
# C. albicans [3] = assay: Minimal fungicidal concentration test against C. albicans; assay type: cell-based, Candida albicans; settings: MBC/MFC test
# Description: (§3) To determine the minimal bactericidal concentration (MBC) and minimal fungicidal concentration (MFC) of propionic acid, microorganisms (10^6 colony forming units (cfu)/ml) were incubated overnight in media with propionic acid (1.25-2,000 mM) in a 96-well microplate (100 μl per well). The control only received PBS. After incubation, the microorganisms were diluted 1:10-1:10^6 into PBS. The dilutions (5 μl) were spotted onto agar media to count cfu; MBC/MFC were determined at 99.9% killing level. To determine the effect of pH on growth of S. aureus USA300, the bacterium was incubated in TSB at pH 5.8 and 6.8, and TSB with 25 mM propionic acid at pH 5.8 and 6.8 (buffered with 4-(2-hydroxyethyl)-1-piperazineethanesulfonic acid (HEPES)) in a 96-well microplate overnight before spotting onto agar plates.
# P. acnes = assay: MBC test of propionic acid against P. acnes; assay type: cell-based, Propionibacterium acnes
# Description: as §3
# [4] = Skin wound healing without USA300 inoculation; assay type: in vivo, ICR mice; settings: topical 100 mM propionic acid vs PBS (pH 7.1) and PBS/pH (pH 3.5), 8-day period
# Description: as §2
compound,measurement,setting,value
CCC(=O)O [propionic acid],"minimum effective concentration for growth inhibition zones, E. coli",E. coli,10 mM
same,inhibition of S. aureus strains besides USA300,[1],inhibit
same,sizes of USA300-infected skin lesions,"USA300; topical 100 mM propionic acid 10 min before USA300 (2×10^6 CFU), vs PBS",considerably decreased; also recorded: significantly reduced
same,bacterial numbers in USA300-infected lesions,"USA300; topical 100 mM propionic acid, three days after bacterial application (FIG. 10F)",6.9±0.7×10^7 CFU
same,bacterial numbers in USA300-infected lesions,"USA300; topical 100 mM propionic acid, three days after bacterial application (FIG. 11F)",1.4±1.4×10^7 CFU/g
same,histological observation (H&E) of inflammatory response in wounds,"USA300; topical 100 mM propionic acid, vs PBS-treated wounds",less pronounced inflammatory response; also recorded: attenuated inflammatory response
same,USA300 colonization / growth in the skin lesions,USA300; topical 100 mM propionic acid,considerably decreased
same,USA300 colonization / growth in the skin lesions,"USA300; topical 100 mM propionic acid, listed as Propionic acid",significantly decreased
same,"minimum effective concentration for growth inhibition zones, C. albicans",C. albicans [2],10 mM
same,concentration that completely killed C. albicans,C. albicans [3],greater than or equal to 25 mM
same,concentration that effectively suppressed the growth of C. albicans,C. albicans [3],greater than 10 mM
same,concentration at which growth inhibition of P. acnes was detectable,"P. acnes; MBC tests, 5 to 2,000 mM tested",greater than 1000 mM
same,growth of P. acnes,P. acnes; propionic acid 25 mM,did not affect the growth
same,growth of P. acnes,"P. acnes; propionic acid between 5 and 500 mM, MBC tests",did not affect the growth
same,changes in lesion sizes of wounds without USA300 inoculation,[4],not statistically different
